Data as given in ChEMBL document CHEMBL3301562, “MMV Box screening against Plasmodium falciparum protein kinases and aminoacyl tRNA synthetases”.

How the values were obtained:
Assay type in all cases: functional
[1] = molecular target: T1, Proline--tRNA ligase (Plasmodium falciparum (isolate 3D7), UniProt Q8I5R7); assay: MMV: ProRS recombinant Plasmodium falciparum Prolyl-tRNA-synthetase, assay with yeast tRNA, ATP, and proline and 3 uM MMV malaria box compound, assay read out with kinase glo as % inhibition.
T1 sequence (Q8I5R7 whole entry): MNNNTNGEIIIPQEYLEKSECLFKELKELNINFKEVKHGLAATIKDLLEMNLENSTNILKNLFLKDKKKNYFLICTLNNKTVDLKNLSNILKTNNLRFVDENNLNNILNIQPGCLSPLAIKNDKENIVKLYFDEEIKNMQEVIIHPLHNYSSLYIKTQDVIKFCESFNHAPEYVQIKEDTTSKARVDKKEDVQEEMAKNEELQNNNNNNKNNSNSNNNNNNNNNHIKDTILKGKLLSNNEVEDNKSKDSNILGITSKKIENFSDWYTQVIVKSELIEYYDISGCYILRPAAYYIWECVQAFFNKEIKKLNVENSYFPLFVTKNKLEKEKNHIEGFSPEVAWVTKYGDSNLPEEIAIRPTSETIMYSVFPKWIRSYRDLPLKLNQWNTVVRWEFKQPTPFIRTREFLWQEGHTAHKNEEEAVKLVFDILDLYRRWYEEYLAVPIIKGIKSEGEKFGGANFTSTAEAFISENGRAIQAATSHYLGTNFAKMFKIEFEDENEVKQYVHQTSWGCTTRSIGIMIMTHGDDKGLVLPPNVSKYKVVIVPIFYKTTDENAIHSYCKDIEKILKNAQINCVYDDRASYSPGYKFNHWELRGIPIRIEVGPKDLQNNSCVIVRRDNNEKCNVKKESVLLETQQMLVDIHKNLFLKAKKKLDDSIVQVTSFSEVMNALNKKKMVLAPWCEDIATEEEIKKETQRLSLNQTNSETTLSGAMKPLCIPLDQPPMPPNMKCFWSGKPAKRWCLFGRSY

[2] = molecular target: Lysine--tRNA ligase (Plasmodium falciparum (isolate 3D7), UniProt Q8IDJ8); assay: MMV: KRS recombinant Plasmodium falciparum Lysyl-tRNA-synthetase, assay with yeast tRNA, ATP, and lysine and 3 uM MMV malaria box compound, assay read out with kinase glo as % inhibition.
[3] = molecular target: T2, Cdk-related protein kinase 6 (Plasmodium falciparum, UniProt O77239); assay: Final concentrations were 1.5 uM ATP, 5 mM MnCl2, and 15 ug/ml PK6 in a buffer of 100 mM Tris-HCl (pH 7.5). 50 ug/mL MBP was provided as the substrate; 10 uM staurosporine was used as a control inhibitor. Incubation time was 3 hours and 40 minutes.The catalytic activity of each kinase was considered proportional to ATP consumed, as determined from measurements of residual [ATP] with the luciferase-based reagent Kinase-Glo (Promega) following incubation. Luminescence (proportional to residual [ATP]) was measured on the plate readers FLx800 (BioTek Instruments, Winooski, VT, USA) and MicroBeta2.
T2 sequence (O77239 whole entry): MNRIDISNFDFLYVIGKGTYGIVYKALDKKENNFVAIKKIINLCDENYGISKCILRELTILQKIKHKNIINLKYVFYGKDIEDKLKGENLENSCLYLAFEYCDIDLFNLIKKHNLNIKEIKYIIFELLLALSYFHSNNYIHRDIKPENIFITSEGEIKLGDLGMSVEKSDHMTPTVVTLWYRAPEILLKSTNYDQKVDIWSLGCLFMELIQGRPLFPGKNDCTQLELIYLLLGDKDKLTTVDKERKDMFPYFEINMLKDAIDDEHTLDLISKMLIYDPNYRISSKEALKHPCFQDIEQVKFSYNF

[4] = molecular target: T3, Calcium-dependent protein kinase 4 (Plasmodium falciparum (isolate 3D7), UniProt Q8IBS5); assay: MMV: CDPK4 Protein kinase inhibition assay using recombinant PfCDPK4, syntide2 peptide substrate, ATP and KinaseGlo to measure % inhibition at 1 uM MMV box compound.
T3 sequence (Q8IBS5 whole entry): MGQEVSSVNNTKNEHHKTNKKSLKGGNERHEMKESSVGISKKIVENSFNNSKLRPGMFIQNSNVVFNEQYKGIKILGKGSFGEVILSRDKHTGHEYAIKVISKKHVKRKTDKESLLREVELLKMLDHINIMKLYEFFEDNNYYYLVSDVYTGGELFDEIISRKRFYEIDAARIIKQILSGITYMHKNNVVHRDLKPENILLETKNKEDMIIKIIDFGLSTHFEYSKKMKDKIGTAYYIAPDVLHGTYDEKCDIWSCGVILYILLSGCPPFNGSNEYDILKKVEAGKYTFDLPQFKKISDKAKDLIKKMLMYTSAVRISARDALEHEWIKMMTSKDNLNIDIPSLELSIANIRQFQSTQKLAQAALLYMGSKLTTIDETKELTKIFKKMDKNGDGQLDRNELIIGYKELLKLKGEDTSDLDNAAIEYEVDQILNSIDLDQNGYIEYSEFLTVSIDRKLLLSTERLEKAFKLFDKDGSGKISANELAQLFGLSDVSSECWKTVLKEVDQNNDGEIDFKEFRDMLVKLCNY

[5] = molecular target: T4, Putative uncharacterized protein pk7 (Plasmodium falciparum, UniProt O96214); assay: Final concentrations were 1 uM ATP, 2 mM DTT, 20 mM MgCl2, 2 mM MnCl2, 0.01% BSA, and 6 ug/ml PK7, in a buffer of 20 mM Tris-HCl (pH 7.5). The enzyme itself was the only substrate present (since autophosphorylation occurs); 100 uM 1NA-PP1 was used as a control inhibitor. Incubation time was 3 hours.
T4 sequence (O96214 whole entry): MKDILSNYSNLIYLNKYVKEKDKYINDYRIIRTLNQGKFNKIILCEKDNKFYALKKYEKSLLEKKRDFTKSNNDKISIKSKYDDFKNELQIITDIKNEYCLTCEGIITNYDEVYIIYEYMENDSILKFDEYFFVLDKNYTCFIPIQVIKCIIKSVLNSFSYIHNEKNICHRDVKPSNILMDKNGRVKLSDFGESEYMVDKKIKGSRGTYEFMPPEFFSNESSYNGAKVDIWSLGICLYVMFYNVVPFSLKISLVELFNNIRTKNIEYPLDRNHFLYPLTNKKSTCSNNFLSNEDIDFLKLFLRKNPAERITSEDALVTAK

[6] = molecular target: T5, Mitogen-activated protein kinase (Plasmodium falciparum, UniProt Q25917); assay: Final concentrations were 1 uM ATP, 0.5 mM DTT, 1 mM MgCl2, 0.5 mg/mL BSA, and 10 ug/ml MAP2 in a buffer of 50 mM HEPES (pH 7.0). 0.5 mg/mL histone III-S served as the substrate (13); 100 uM AMP-PNP, an ATP analog, was used as a control inhibitor. Incubation time was 4 hours.
T5 sequence (Q25917 whole entry): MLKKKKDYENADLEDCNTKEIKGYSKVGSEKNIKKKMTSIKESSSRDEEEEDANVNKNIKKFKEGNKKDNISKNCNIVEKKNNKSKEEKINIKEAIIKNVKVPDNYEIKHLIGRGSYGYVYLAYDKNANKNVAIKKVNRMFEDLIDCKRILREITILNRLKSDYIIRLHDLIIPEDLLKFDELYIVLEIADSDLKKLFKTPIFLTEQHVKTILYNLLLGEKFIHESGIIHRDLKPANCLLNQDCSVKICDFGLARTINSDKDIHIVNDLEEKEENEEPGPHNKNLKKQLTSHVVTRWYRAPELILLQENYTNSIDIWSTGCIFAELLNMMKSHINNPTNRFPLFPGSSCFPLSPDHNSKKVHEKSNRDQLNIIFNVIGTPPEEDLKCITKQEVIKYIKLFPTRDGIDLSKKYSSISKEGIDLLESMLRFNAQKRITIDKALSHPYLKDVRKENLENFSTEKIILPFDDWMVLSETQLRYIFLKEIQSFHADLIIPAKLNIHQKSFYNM

[7] = molecular target: Calcium-dependent protein kinase 1 (Plasmodium falciparum, UniProt P62344); assay: MMV: CDPK1 Protein kinase inhibition assay using recombinant PfCDPK1, syntide 2 peptide substrate, ATP and KinaseGlo to measure % inhibition at 1 uM MMV box compound.
Chain of Calcium-dependent protein kinase 1 (P62344 whole entry): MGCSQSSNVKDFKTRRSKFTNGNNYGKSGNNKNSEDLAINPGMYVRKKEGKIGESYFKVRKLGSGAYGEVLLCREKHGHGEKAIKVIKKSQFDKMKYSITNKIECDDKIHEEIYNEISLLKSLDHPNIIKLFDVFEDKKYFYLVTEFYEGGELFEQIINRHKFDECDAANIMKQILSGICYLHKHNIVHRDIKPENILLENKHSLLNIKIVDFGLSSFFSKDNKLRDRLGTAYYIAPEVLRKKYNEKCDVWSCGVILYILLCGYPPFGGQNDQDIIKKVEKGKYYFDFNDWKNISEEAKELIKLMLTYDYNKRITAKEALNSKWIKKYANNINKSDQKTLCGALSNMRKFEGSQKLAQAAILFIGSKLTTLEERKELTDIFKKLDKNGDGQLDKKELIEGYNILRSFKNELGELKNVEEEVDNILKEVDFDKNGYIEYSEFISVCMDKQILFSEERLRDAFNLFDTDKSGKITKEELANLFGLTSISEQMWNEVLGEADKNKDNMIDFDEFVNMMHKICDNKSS

Chain of Lysine--tRNA ligase (Q8IDJ8 whole entry): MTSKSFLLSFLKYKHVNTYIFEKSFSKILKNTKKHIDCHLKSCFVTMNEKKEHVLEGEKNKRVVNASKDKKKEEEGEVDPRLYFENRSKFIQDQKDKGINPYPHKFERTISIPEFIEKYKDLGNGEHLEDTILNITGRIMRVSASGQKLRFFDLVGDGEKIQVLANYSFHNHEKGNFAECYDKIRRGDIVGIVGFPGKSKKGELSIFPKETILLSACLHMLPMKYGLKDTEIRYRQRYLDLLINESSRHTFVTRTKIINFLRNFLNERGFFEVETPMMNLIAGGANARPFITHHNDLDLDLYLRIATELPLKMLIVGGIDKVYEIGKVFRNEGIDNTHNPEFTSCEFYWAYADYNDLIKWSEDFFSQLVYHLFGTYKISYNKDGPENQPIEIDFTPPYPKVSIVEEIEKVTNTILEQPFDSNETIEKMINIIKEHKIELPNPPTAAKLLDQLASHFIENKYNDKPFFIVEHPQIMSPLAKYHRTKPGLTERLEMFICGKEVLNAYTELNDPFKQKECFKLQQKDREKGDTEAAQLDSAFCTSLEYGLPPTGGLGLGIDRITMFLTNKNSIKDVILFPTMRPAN

| SMILES | IC50 [1] [nM] | IC50 [2] [nM] | IC50 [3] [nM] | IC50 [4] [nM] | IC50 [5] [nM] | IC50 [6] [nM] | IC50 [7] [nM] |
| --- | --- | --- | --- | --- | --- | --- | --- |
| CCOc1ccc(-c2nc(NC(=O)c3cccc(S(C)(=O)=O)c3)sc2C)cc1 | > 2500 | > 2500 | > 1000 | > 1000 | > 1000 | > 1000 | > 1000 |
| O=C(NCCCN1CCC(N2CCCCC2)CC1)C1=Cc2cc(Br)ccc2OC1 | > 2500 | > 2500 | > 1000 | > 1000 | > 1000 | > 1000 | > 1000 |
| CCOc1ccc(-n2cc(-c3ccccc3)c3c(SCc4cc(C)ccc4C)ncnc32)cc1 | > 2500 | > 2500 | > 1000 | > 1000 | > 1000 | > 1000 | > 1000 |
| Cn1c(=O)n(C)c2cc(CNCCNc3ccnc4cc(Cl)ccc34)ccc21 | > 2500 | > 2500 | > 1000 | > 1000 | > 1000 | > 1000 | > 1000 |
| COc1ccc2nc(C)cc(Nc3ccc(Cl)cc3)c2c1 | > 2500 | > 2500 | > 1000 | > 1000 | > 1000 | > 1000 | > 1000 |
| CCOc1ccccc1NC(=O)CN1CCN(C(=O)c2ccco2)CC1 | > 2500 | > 2500 | > 1000 | > 1000 | > 1000 | > 1000 | > 1000 |
| COc1ccc(-c2cc(=O)oc3c4c(ccc23)OCN(Cc2ccc(F)cc2)C4)cc1 | > 2500 | > 2500 | > 1000 | > 1000 | > 1000 | > 1000 | > 1000 |
| COc1ccc(CNC(=O)c2cc3c(=O)n4ccccc4nc3n(CCc3ccccc3)c2=N)cc1 | > 2500 | > 2500 | > 1000 | > 1000 | > 1000 | > 1000 | > 1000 |
| CCCCCC(=O)N1c2ccccc2N=C2CC(c3ccc(OC)c(OC)c3)CC(O)=C2C1c1ccc(C(F)(F)F)cc1 (stereo not given) | > 2500 | > 2500 | > 1000 | > 1000 | > 1000 | > 1000 | > 1000 |
| O=C(NC(c1ccccc1)c1ccc2cccnc2c1O)c1ccccc1 (stereo not given) | > 2500 | > 2500 | > 1000 | > 1000 | > 1000 | > 1000 | > 1000 |
